Reference: US9113629B2, “4-amino-6-(4-substituted-phenyl)-picolinates and 6-amino-2-(4-substituted-phenyl)-pyrimidine-4-carboxylates and their use as herbicides” (DOW AGROSCIENCES LLC, priority 2013, dated 2015)
Where two headings read alike, the source gives them in different places.

Experiments:
[1] = test system: Key Broadleaf Weed and Crop Species; test: Post-emergent Test II herbicidal activity (Table 5); assay type: in vivo; details: post-emergence, 336 h, post-emergent, 14 days after application; for pest or weed control at 70 g/ha: 70 g ai/ha; for pest or weed control at 140 g/ha: 140 g ai/ha
In short: (§1)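 Test species were raised 7–21 d under greenhouse conditions until reaching the first or second true leaf, sprayed with formulated compound at 187 L/ha, and kept subirrigated to avoid wash-off. Fourteen days later, damage was rated visually on a 0–100% scale against untreated plants.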

[2] = test system: Key Grass and Sedge Weeds as well as Grass Crops; test: Post-emergent Test II herbicidal activity (Table 6); assay type: in vivo; details: post-emergence, 336 h; for pest or weed control at 70 g/ha: application rate 70 g ai/ha; for pest or weed control at 140 g/ha: application rate 140 g ai/ha
In short: as §1

[3] = ABUTH: velvetleaf (Abutilon theophrasti), read-out: Visual Growth Reduction (%) 14 Days After Application ABUTH
[4] = AMARE: redroot pigweed (Amaranthus retroflexus), read-out: Visual Growth Reduction (%) 14 Days After Application AMARE
[5] = BRSNN: oilseed-rape, canola (Brassica napus), read-out: Visual Growth Reduction (%) 14 Days After Application BRSNN
[6] = CHEAL: lambsquarters (Chenopodium album), read-out: Visual Growth Reduction (%) 14 Days After Application CHEAL
[7] = EPHHL: wild poinsettia (Euphorbia heterophylla), read-out: Visual Growth Reduction (%) 14 Days After Application EPHHL
[8] = HELAN: sunflower (Helianthus annuus), read-out: Visual Growth Reduction (%) 14 Days After Application HELAN
[9] = VIOTR: wild pansy (Viola tricolor), read-out: Visual Growth Reduction (%) 14 Days After Application VIOTR
[10] = Triticum aestivum, TRZSS (wheat), read-out: Visual Growth Reduction (%) 14 Days After Application, TRZSS
[11] = CYPES: yellow nutsedge (Cyperus esculentus), read-out: Visual Growth Reduction (%) 14 Days After Application, CYPES
[12] = DIGSA: crabgrass (Digitaria sanguinalis), read-out: Visual Growth Reduction (%) 14 Days After Application, DIGSA
[13] = ECHCG: barnyardgrass (Echinochloa crus-galli), read-out: Visual Growth Reduction (%) 14 Days After Application, ECHCG
[14] = ORYSA: rice (Oryza sativa), read-out: Visual Growth Reduction (%) 14 Days After Application, ORYSA
[15] = SETFA: giant foxtail (Setaria faberi), read-out: Visual Growth Reduction (%) 14 Days After Application, SETFA
[16] = SORVU: grain sorghum (Sorghum vulgare), read-out: Visual Growth Reduction (%) 14 Days After Application, SORVU
[17] = ZEAMX: maize, corn (Zea mays), read-out: Visual Growth Reduction (%) 14 Days After Application, ZEAMX

Structure (SMILES) | pest or weed control at 70 g/ha [1, 3] | pest or weed control at 140 g/ha [1, 3] | pest or weed control at 70 g/ha [1, 4] | pest or weed control at 140 g/ha [1, 4] | pest or weed control at 70 g/ha [1, 5] | pest or weed control at 140 g/ha [1, 5] | pest or weed control at 70 g/ha [1, 6] | pest or weed control at 140 g/ha [1, 6] | pest or weed control at 70 g/ha [1, 7] | pest or weed control at 140 g/ha [1, 7] | pest or weed control at 70 g/ha [1, 8] | pest or weed control at 140 g/ha [1, 8] | pest or weed control at 70 g/ha [1, 9] | pest or weed control at 140 g/ha [1, 9] | pest or weed control at 70 g/ha [2, 10] | pest or weed control at 140 g/ha [2, 10] | pest or weed control at 70 g/ha [2, 11] | pest or weed control at 140 g/ha [2, 11] | pest or weed control at 70 g/ha [2, 12] | pest or weed control at 140 g/ha [2, 12] | also measured
COc1c(N)nc(-c2cc(F)c(I)cc2F)nc1C(=O)O [Compound 119] | 75 to 84% | 85 to 94% | 85 to 94% | 95 to 100% | 95 to 100% | 95 to 100% | 95 to 100% | 95 to 100% | 95 to 100% | 95 to 100% | 85 to 94% | 85 to 94% | 0 to 29% | 0 to 29% | 45 to 59% | 60 to 74% | 45 to 59% | 45 to 59% | 45 to 59% | 60 to 74% | pest or weed control at 70 g/ha [2, 13]: 85 to 94%; pest or weed control at 140 g/ha [2, 13]: 85 to 94%; pest or weed control at 70 g/ha [2, 14]: 0 to 29%; pest or weed control at 140 g/ha [2, 14]: 0 to 29%; pest or weed control at 70 g/ha [2, 15]: 60 to 74%; pest or weed control at 140 g/ha [2, 15]: 60 to 74%; pest or weed control at 70 g/ha [2, 16]: 60 to 74%; pest or weed control at 140 g/ha [2, 16]: 60 to 74%; pest or weed control at 70 g/ha [2, 17]: 60 to 74%; pest or weed control at 140 g/ha [2, 17]: 60 to 74%
Nc1cc(-c2ccc(I)cc2F)nc(C(=O)O)c1Cl [Compound 124] | 85 to 94% | 85 to 94% | 95 to 100% | 95 to 100% | 95 to 100% | 95 to 100% | 95 to 100% | 95 to 100% | 95 to 100% | 95 to 100% | 85 to 94% | 85 to 94% | 95 to 100% | 95 to 100% | 45 to 59% | 60 to 74% | 95 to 100% | 95 to 100% | 75 to 84% | 85 to 94% | pest or weed control at 70 g/ha [2, 13]: 85 to 94%; pest or weed control at 140 g/ha [2, 13]: 85 to 94%; pest or weed control at 70 g/ha [2, 14]: 30 to 44%; pest or weed control at 140 g/ha [2, 14]: 30 to 44%; pest or weed control at 70 g/ha [2, 15]: 60 to 74%; pest or weed control at 140 g/ha [2, 15]: 95 to 100%; pest or weed control at 70 g/ha [2, 16]: 95 to 100%; pest or weed control at 140 g/ha [2, 16]: 95 to 100%; pest or weed control at 70 g/ha [2, 17]: 75 to 84%; pest or weed control at 140 g/ha [2, 17]: 75 to 84%
Nc1c(Cl)c(C(=O)O)nc(-c2ccc(Br)cc2)c1Cl [Compound 125] | 95 to 100% | 95 to 100% | 95 to 100% | 95 to 100% | 95 to 100% | 95 to 100% | 95 to 100% | 95 to 100% | 30 to 44% | 45 to 59% | 95 to 100% | 95 to 100% | 0 to 29% | 0 to 29% | 60 to 74% | 60 to 74% | 95 to 100% | 95 to 100% | 60 to 74% | 60 to 74% | pest or weed control at 70 g/ha [2, 14]: 0 to 29%; pest or weed control at 140 g/ha [2, 14]: 0 to 29%; pest or weed control at 70 g/ha [2, 15]: 85 to 94%; pest or weed control at 140 g/ha [2, 15]: 95 to 100%; pest or weed control at 70 g/ha [2, 16]: 60 to 74%; pest or weed control at 140 g/ha [2, 16]: 85 to 94%; pest or weed control at 70 g/ha [2, 17]: 60 to 74%; pest or weed control at 140 g/ha [2, 17]: 60 to 74%
C#Cc1ccc(-c2cc(N)c(Cl)c(C(=O)OC)n2)cc1 [Compound 126] | 95 to 100% | 95 to 100% | 95 to 100% | 95 to 100% | 75 to 84% | 85 to 94% | 95 to 100% | 95 to 100% | 95 to 100% | 95 to 100% | 85 to 94% | 95 to 100% | 0 to 29% | 30 to 44% | 0 to 29% | 0 to 29% | 60 to 74% | 30 to 44% | 75 to 84% | 85 to 94% | pest or weed control at 70 g/ha [2, 13]: 95 to 100%; pest or weed control at 140 g/ha [2, 13]: 95 to 100%; pest or weed control at 70 g/ha [2, 14]: 0 to 29%; pest or weed control at 140 g/ha [2, 14]: 0 to 29%; pest or weed control at 70 g/ha [2, 15]: 0 to 29%; pest or weed control at 140 g/ha [2, 15]: 75 to 84%; pest or weed control at 70 g/ha [2, 16]: 75 to 84%; pest or weed control at 140 g/ha [2, 16]: 85 to 94%; pest or weed control at 70 g/ha [2, 17]: 0 to 29%; pest or weed control at 140 g/ha [2, 17]: 60 to 74%
COC(=O)c1nc(-c2cc(F)c(Br)cc2F)cc(N)c1Cl [Compound 127, methyl 4-amino-6-(4-bromo-2,5-difluorophenyl)-3-chloropicolinate] | 95 to 100% | 95 to 100% | 95 to 100% | 95 to 100% | 85 to 94% | 95 to 100% | 95 to 100% | 95 to 100% | 95 to 100% | 95 to 100% | 85 to 94% | 95 to 100% | 95 to 100% | 95 to 100% | 60 to 74% | 75 to 84% | 95 to 100% | 95 to 100% | 85 to 94% | 95 to 100% | pest or weed control at 70 g/ha [2, 13]: 95 to 100%; pest or weed control at 140 g/ha [2, 13]: 95 to 100%; pest or weed control at 70 g/ha [2, 14]: 0 to 29%; pest or weed control at 140 g/ha [2, 14]: 0 to 29%; pest or weed control at 70 g/ha [2, 15]: 95 to 100%; pest or weed control at 140 g/ha [2, 15]: 95 to 100%; pest or weed control at 70 g/ha [2, 16]: 95 to 100%; pest or weed control at 140 g/ha [2, 16]: 95 to 100%; pest or weed control at 70 g/ha [2, 17]: 85 to 94%; pest or weed control at 140 g/ha [2, 17]: 85 to 94%
